Assay results reported in patent US9084812B2, “Composition useful for the prevention or reduction of the progression of prostate cancer” (SIGMA-TAU INDUSTRIE FARMACEUTICHE RIUNITE S.P.A., priority 2008, dated 2015).
“And” between values parts separate entries of the source, which are not always exact repeats. Identical values can stand only once.

Experiments:
PC3 cells = test: MTT colorimetric cell proliferation assay, PC3; type: cell-based, human; set-up: Absorbance 540 nm, single wells (N° 1-8) / Absorbance 540 nm, Mean / PC3 cell proliferation, single wells (N° 1-8) / PC3 cell proliferation, Mean: unit not given here; conditions: for Absorbance 540 nm, single wells (N° 1-8): lycopene 5 mmol/L, selenium 30 ng/ml, zinc 10 μg/ml; for % inhib: vs control
Description: (§1) For the experiments reported in the following established human prostate carcinoma cell lines LNCaP and PC3 (obtained from the American Type Culture Collection Rockville, Md.) were used. The LNCaP cells were cultured in RPMI 1640 medium (Life Technologies, Rockville, Md.), supplemented with 10% Fetal Bovine Serum (FBS) and 1% Penicillin and Streptomycin. The cells were incubated at 37 degree C. in a humidified atmosphere of 5% CO2 in air. Both sets of cell cultures were grown to 80% confluence in 10 cm tissue culture flasks and split 1:8. The cells were plated in 96 cell plates and allowed to attach and reach 60-70% confluence before being used for experimentation. […] Cells that were used as control were incubated with same amount of PBS in complete cell medium. The effects of lycopene (5 mmol/L], selenium (30 ng/ml), zinc (10 μg/ml), serenoa (10 μg/ml), and soya isoflavon (10 μg/ml) were also tested by adding them to the cell culture alone or in combination with the green tea extract and pomegranate extract. The cellular proliferation of the cells was determined using the 3-(4,5-dimethylthiazol-2-yl)-2,5-diphenyltetrazolium (MIT) colorimetric assay following 24 hours of incubation at 37° C. with or without the test agents. The MTT ([…]) was added to all the wells and incubated for a further 2 hr. The plate was than centrifuged at 500×g for 5 min at 4 degree C. The MIT solution was removed from the wells by careful aspiration and buffered DMSO (0.1 ml) was added to each of the wells and plates shaken for 15 mins. The absorbance was measured on a microplate reader at the wavelength of 540 nm. The effect of each compound alone and in combination on cell growth was assessed as the percentage of cell viability in which the untreated control cells were taken as those being completely viable and allowed to grow freely.

LNCaP cells = test: MTT colorimetric cell proliferation assay, LNCaP; type: cell-based, human; set-up: Absorbance 540 nm, single wells (N° 1-10) / Absorbance 540 nm, Mean / LNCaP cell proliferation, Mean: unit not given here; conditions: for % inhib: vs control
Description: as §1

[1] = Table 2, 24 hours incubation, green tea 40 μg/ml, pomegranate 40 μg/ml
[2] = Table 2, 24 hours incubation, mean of 8 wells
[3] = Table 1, 24 hours incubation, mean of 10 wells

Row | Compound | Absorbance 540 nm, single wells (N° 1-8) (PC3 cells; [1]) | Absorbance 540 nm, Mean (PC3 cells; [2]) | % inhib (PC3 cells; Table 2, 24 hours incubation) [%] | Absorbance 540 nm, single wells (N° 1-10) (LNCaP cells; Table 1, 24 hours incubation, green tea 40 μg/ml, pomegranate 40 μg/ml, lycopene 5 mmol/L, selenium 30 ng/ml, zinc 10 μg/ml) | Absorbance 540 nm, Mean (LNCaP cells; [3]) | % inhib (LNCaP cells; Table 1, 24 hours incubation) [%] | PC3 cell proliferation, single wells (N° 1-8) (PC3 cells; Table 4, 24 hours incubation, green tea 40 μg/ml, pomegranate 40 μg/ml, serenoa 10 μg/ml, soya isoflavon 10 μg/ml, L-carnitine) | PC3 cell proliferation, Mean (PC3 cells; Table 4, 24 hours incubation, mean of 8 wells) | % inhib (PC3 cells; Table 4, 24 hours incubation) [%] | LNCaP cell proliferation, Mean (LNCaP cells; Table 3, 24 hours incubation, mean of 10 wells) | % inhib (LNCaP cells; Table 3, 24 hours incubation) [%]
1 | CC(C)=CCC/C(C)=C/C=C/C(C)=C/C=C/C(C)=C/C=C/C=C(C)/C=C/C=C(C)/C=C/C=C(\C)CCC=C(C)C [C, lycopene] | 377 and 314 and 322 and 309 and 299 and 316 and 382 and 308 | 328 | 11.4 | 312 and 317 and 301 and 329 and 315 and 327 and 353 and 341 | 324 | 6.4 | – | – | – | – | –
2 | [Se] [D, selenium] | 309 and 341 and 345 and 286 and 292 and 313 and 321 and 374 | 323 | 12.7 | – | 311 | 9.8 | – | – | – | – | –
3 | [Zn] [E, zinc] | 355 and 322 and 395 and 344 and 312 and 321 and 339 | 342 | 7.8 | – | 325 | 5.7 | – | – | – | – | –
4 | C[N+](C)(C)C[C@H](O)CC(=O)[O-] [H, L-carnitine] | – | – | – | – | – | – | 366 and 341 and 387 and 320 and 378 and 392 and 385 | 369 | 2.6 | 347 | 3.3
